A value given as a limit tells only on which side of the number the result lay.

One test concerns A431. In words: A431 CellTiter-Glo assay. The format is cell-based. Particulars: Homo sapiens, A-431; 72 h incubation; read-out: A431 CTG IC50. The method, then:
(§1) The CellTiter-Glo Luminescent Cell Viability Assay (Promega) is a homogeneous method of determining the number of viable cells in culture. It is based on quantification of ATP, indicating the presence of metabolically active cells. Cells are seeded on day 1 at cell numbers that assure assay linearity and optimal signal intensity. After incubation for 24h in humidified chambers at 37°C and 5% CO2, compounds in DMSO are added at different concentrations. Cells are further incubated for 72 h at 37°C and 5% CO2. Cells treated with the compound vehicle DMSO are used as positive controls and cells treated with 10 µM Staurosporine serve as negative controls. At day 5 the CellTiter Glo Reagent is prepared according to the instructions of the kit (Promega Inc.): Reagent is mixed 1:1 with cell culture medium. Thereon, mixture and assay plates are equilibrated at room temperature for 20 min. Equal volumes of the reagent-medium-mixture is added to the volume of culture medium present in each well. The plates are mixed at ∼200 rpm for 2 minutes on an orbital shaker. The microplates are then incubated at room temperature for 10 minutes for stabilization of the luminescent signal. Following incubation the luminescence is recorded on a Victor microplate reader (Perkin Elmer) using a 200 ms integration time. The data is then analyzed with Excel using the XLFIT Plugin (dose response Fit 205) for IC50-determination. As quality control the Z'-factor is calculated from 16 positive and negative control values. Only assay results showing a Z'-factor ≥ 0.5 are used for further analysis.
A general note: ATP-based viability assays read luminescence as a measure of living cells.

The test system of a further test is H1975. The test is described as follows: H1975 CellTiter-Glo assay. As to conditions: Homo sapiens, NCI-H1975; 72 h incubation; read-out: H1975 CTG IC50. It is filed as cell-based. The method, then: as §1
Test [1] has as its system EGFR Exon 20 InsNPH Ba/F3. In words: EGFR Exon 20 InsNPH Ba/F3 CellTiter-Glo assay. The format is cell-based. As to conditions: Mus musculus, BaF3; 72 h incubation; read-out: EGFR Exon 20 InsNPH Ba/F3 CTG IC50. On the procedure:
as §1

For another test, the target named is EGFR T790M L858R (Homo sapiens, UniProt P00533, L858R/T790M). The test is described as follows: EGFR T790ML858R Lance assay. The format is biochemical.
Chain of EGFR T790M L858R (P00533 25-1210 T790M/L858R): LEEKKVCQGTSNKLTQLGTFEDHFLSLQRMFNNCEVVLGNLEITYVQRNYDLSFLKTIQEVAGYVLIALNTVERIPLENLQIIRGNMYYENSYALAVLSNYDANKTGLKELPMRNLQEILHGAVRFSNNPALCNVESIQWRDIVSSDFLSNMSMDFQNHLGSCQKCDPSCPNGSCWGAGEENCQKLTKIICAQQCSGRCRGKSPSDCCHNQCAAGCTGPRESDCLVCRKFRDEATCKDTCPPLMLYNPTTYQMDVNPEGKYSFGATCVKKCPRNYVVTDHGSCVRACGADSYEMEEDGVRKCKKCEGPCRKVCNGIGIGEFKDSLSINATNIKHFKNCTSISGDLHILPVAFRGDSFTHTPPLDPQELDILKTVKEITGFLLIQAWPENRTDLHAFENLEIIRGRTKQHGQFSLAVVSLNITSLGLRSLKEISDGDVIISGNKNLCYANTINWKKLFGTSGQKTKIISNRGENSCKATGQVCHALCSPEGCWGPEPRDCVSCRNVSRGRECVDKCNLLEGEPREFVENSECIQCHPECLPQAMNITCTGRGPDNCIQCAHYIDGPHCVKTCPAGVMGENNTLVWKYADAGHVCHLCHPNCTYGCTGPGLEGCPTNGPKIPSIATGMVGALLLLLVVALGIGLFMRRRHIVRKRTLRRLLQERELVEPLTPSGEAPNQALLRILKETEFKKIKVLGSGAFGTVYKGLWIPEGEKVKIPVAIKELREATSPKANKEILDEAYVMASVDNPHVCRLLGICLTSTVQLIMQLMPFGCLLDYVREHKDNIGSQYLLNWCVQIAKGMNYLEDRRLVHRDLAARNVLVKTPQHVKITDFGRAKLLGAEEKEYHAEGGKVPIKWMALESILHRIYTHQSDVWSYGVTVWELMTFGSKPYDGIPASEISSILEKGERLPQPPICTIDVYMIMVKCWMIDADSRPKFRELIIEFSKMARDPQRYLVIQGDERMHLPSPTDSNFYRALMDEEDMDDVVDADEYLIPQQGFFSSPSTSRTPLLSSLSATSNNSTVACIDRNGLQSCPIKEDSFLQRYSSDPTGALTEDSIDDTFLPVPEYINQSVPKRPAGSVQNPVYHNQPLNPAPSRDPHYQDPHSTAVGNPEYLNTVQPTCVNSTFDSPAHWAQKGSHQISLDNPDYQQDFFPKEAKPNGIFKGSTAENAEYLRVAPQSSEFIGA
The test system of a further test is EGFR vIII Ba/F3. The test is described as follows: EGFR vIII Ba/F3 CellTiter-Glo assay. The format is cell-based. As to conditions: Mus musculus, BaF3; 72 h incubation; read-out: EGFR vIII Ba/F3 CTG IC50. The method, then: as §1
The target of a further test is EGFR wt (Homo sapiens, UniProt P00533). In words: EGFR wt Lance assay. The format is biochemical.
Chain of EGFR wt (P00533 25-1210): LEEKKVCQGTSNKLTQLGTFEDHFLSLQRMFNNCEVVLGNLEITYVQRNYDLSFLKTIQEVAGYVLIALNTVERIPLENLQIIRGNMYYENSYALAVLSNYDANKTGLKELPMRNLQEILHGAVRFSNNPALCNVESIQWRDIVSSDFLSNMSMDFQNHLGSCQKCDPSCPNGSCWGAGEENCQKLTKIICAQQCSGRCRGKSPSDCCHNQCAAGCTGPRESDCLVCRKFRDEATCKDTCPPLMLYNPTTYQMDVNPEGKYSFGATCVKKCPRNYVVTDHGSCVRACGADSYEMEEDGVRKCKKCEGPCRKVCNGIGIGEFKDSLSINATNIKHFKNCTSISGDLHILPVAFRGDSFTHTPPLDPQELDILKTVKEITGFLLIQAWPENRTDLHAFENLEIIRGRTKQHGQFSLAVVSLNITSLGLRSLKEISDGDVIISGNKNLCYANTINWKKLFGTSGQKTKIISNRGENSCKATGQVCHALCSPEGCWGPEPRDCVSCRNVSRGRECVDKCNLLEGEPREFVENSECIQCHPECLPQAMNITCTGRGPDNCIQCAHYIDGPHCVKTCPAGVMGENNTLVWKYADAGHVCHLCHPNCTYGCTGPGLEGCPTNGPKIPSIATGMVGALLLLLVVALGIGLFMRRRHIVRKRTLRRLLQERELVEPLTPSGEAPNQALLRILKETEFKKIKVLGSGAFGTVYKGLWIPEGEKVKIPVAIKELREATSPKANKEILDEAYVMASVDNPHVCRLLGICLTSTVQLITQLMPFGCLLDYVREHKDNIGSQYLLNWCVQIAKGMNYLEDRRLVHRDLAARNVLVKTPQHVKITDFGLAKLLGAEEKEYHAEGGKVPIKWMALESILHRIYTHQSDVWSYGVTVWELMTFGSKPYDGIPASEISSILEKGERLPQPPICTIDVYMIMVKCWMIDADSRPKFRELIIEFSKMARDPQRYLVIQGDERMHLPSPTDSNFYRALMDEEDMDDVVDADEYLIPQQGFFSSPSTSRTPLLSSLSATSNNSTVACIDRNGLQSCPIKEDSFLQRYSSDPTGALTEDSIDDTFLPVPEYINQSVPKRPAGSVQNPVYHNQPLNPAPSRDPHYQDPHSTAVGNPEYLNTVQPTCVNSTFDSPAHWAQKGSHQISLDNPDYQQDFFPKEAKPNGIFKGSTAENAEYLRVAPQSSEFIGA
For test [2], the system named is Her2 Exon 20 InsYVMA Ba/F3. In words: Her2 Exon 20 InsYVMA Ba/F3 CellTiter-Glo assay. The format is cell-based. As to conditions: Mus musculus, BaF3; 72 h incubation; read-out: Her2 Exon 20 InsYVMA Ba/F3 CTG IC50. On the procedure: as §1
The next test concerns the target T1, HER2 INS YVMA (Homo sapiens, UniProt P04626, INS775YVMA).
T1 construct: purchased DPF
In words: Her2 Exon 20 InsYVMA Lance kinase activity assay. It is filed as biochemical. Particulars: 1 h incubation, 1,6 µM ATP. On the procedure: This protocol describes how the Lance Kinase Activity Assay was performed to determine IC50 values of compounds of general formula (I) against HER2 INS YVMA. The principle behind this enzymatic assay is based upon the phosphorylation of the Ulight-peptide substrate. It is detected by using a specific EU-labeled anti-phospho peptide antibody. The binding of the Eu labeled anti-phospho peptide antibody to the phosphorylated ULight labeled peptide gives rise to a FRET-signal.
Binding of an inhibitor to the kinase prevents phosphorylation of the Ulight-substrate, resulting in a loss of FRET. In table 2 is summarized the relevant information for the LANCE assay. Table 2: Reagents, stock concentrations and final assay concentrations for Her2 INS YVMA.
The compounds of general formula (I) summarized in Table 3 were serial diluted from a 10 mM DMSO stock solution 1:3 over 8 steps in a total volume of 20 µl.
For every sample, 8 µl of kinase-substrate mix was transferred into a suitable assay plate (e.g. Corning #3673). Compound was added via pintool transfer (10nl/well) using a Biomek FX robot (BeckmanCoulter). Reaction was started by addition of 2µl ATP working solution and mixed using variomag teleshaker (Thermo Fischer Scientific). After 1 h incubation at room temperature the reaction was stopped with 10µl detection mix containing the Eu-labeled phosphospecific antibody and 10mM EDTA. After a second incubation period of 1 h at room temperature the FRET signal was measured at 340 nm excitation, 665 nm and 615 nm emission (for the ULight-substrate and Eu-AB, respectively) with an Envision spectrophotometer (Perkin Elmer, Waltham, MA, USA) with 50 µs delay and 300 µs integration time. IC50 values were determined from the sigmoidal dose response curves with the software Quattro Workflow (Quattro GmbH, Munich, Germany).

The subject of the next test is Cuto-17. The test is described as follows: Cuto-17 CellTiter-Glo assay. As to conditions: CUTO17; 72 h incubation; read-out: Cuto-17 CTG IC50. It is filed as cell-based. On the procedure:
as §1

For a further test, the target named is EGFR L858R (Homo sapiens, UniProt P00533, L858R). In words: EGFR L858R Lance assay. The format is biochemical.
A further test addresses EGFR (del746-750) (Homo sapiens, UniProt P00533, DEL746-750). In words: EGFR (del746-750) Lance assay. It is filed as biochemical.
In a further test the test system is EGFR L858R T790M Ba/F3. The test is described as follows: EGFR L858RT790M Ba/F3 CellTiter-Glo assay. Particulars: Mus musculus, BaF3; 72 h incubation; read-out: EGFR L858R T790M Ba/F3 CTG IC50. The format is cell-based. The method, then: as §1, with “The microplates are then incubated at room temperature for 10 minutes for stabilization of the luminescent signal.” left out, “Only assay results showing a Z'-factor ≥ 0.5 are used for further analysis.” left out

The test system of another test is EGFR L858R Ba/F3. The test is described as follows: EGFR L858R Ba/F3 CellTiter-Glo assay. The format is cell-based. As to conditions: Mus musculus, BaF3; 72 h incubation; read-out: EGFR L858R Ba/F3 CTG IC50. On the procedure: as §1, with “The microplates are then incubated at room temperature for 10 minutes for stabilization of the luminescent signal.” left out, “Only assay results showing a Z'-factor ≥ 0.5 are used for further analysis.” left out

T1 sequence (P04626 with tags, fused parts or gaps INS775YVMA): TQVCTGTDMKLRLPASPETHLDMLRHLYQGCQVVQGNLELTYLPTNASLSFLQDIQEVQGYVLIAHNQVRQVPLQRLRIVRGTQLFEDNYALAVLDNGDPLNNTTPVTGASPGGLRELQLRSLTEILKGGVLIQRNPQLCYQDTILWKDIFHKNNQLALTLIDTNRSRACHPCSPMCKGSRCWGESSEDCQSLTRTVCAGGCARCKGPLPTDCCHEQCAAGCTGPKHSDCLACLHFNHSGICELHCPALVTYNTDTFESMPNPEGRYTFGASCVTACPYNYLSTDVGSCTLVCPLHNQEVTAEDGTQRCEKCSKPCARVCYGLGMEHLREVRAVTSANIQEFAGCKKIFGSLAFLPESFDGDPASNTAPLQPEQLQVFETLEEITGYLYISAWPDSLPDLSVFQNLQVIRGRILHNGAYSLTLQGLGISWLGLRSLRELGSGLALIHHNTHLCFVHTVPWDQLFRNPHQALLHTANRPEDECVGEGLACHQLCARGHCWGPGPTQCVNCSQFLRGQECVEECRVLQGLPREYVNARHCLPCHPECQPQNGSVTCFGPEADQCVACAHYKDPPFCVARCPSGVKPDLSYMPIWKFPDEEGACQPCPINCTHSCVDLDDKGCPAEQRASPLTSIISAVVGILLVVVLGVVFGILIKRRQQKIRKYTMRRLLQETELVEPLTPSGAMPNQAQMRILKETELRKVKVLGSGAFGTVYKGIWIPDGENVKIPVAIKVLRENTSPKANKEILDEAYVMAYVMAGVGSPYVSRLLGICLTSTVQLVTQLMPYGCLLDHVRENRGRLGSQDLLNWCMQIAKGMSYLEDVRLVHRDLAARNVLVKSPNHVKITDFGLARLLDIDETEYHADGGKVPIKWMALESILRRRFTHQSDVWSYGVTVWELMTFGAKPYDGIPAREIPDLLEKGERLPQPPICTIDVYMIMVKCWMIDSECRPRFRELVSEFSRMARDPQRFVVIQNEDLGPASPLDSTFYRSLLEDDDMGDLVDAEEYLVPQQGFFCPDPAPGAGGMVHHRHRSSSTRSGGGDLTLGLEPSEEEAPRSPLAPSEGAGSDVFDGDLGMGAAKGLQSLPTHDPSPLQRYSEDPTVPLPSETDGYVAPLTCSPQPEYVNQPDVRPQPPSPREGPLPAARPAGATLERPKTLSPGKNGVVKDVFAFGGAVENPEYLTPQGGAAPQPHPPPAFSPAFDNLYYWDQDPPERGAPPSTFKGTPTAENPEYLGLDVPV
Chain of EGFR (del746-750) (P00533 with tags, fused parts or gaps DEL746-750): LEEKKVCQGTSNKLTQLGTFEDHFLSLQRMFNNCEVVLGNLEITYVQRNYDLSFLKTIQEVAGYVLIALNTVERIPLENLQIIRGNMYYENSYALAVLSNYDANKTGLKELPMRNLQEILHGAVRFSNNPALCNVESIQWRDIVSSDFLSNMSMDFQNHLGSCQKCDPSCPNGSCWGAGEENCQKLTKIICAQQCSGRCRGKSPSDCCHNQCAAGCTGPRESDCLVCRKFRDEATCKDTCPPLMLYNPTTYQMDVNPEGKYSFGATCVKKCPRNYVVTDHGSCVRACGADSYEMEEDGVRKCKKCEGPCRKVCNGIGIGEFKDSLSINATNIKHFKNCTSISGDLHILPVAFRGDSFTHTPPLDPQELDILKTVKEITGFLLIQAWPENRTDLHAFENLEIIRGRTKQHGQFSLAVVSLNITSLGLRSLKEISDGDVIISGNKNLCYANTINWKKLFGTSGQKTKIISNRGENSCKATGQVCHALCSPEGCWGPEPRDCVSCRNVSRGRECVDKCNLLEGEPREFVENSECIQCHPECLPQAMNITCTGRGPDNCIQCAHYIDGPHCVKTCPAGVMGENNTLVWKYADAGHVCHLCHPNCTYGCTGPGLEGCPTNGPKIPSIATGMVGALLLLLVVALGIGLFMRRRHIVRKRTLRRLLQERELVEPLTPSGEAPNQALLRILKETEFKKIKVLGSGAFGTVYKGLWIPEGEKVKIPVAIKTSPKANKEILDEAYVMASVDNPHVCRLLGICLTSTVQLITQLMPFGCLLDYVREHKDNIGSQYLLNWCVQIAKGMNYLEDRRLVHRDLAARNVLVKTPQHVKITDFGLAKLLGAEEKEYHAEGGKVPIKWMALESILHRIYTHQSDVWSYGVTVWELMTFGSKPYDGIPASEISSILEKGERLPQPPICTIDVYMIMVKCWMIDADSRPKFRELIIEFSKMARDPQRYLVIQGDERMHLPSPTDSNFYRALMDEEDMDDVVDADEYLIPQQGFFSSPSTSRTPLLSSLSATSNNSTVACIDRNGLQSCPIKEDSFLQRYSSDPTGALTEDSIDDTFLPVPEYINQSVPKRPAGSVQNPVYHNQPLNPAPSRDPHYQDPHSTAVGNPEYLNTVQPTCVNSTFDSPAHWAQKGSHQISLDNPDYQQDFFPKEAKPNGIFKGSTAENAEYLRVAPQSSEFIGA

Consider `C=CC(=O)Nc1cc(-c2c(-c3ccc(N4CCN(C)CC4)cc3)[nH]c3ncc(-c4cnn(C)c4)cc23)ccc1C` [Example 1, N-(2-methyl-5-(5-(1-methyl-1H-pyrazol-4-yl)-2-(4-(4-methylpiperazin-1-yl)phenyl)-1H-pyrrolo[2,3-b]pyridin-3-yl)phenyl)acrylamide], for which the IC50 was 1000 to 10000 nM in the test on A431; 100 to 500 nM with H1975; no more than 50 nM in [1]; no more than 50 nM against EGFR T790M L858R; no more than 50 nM with EGFR vIII Ba/F3; no more than 50 nM against EGFR wt. In addition, the results for the IC50 (in [2]; against HER2 INS YVMA; in the test with Cuto-17) were 100 to 500 nM, no more than 50 nM and 100 to 500 nM, respectively.

For `C=CC(=O)Nc1cc(-c2c(-c3ccc(N4CCN(C)CC4)cc3)[nH]c3ncc(-c4ccnn4C)cc23)ccc1C` [Example 2, N-(2-methyl-5-(5-(1-methyl-1H-pyrazol-5-yl)-2-(4-(4-methylpiperazin-1-yl)phenyl)-1H-pyrrolo[2,3-b]pyridin-3-yl)phenyl)acrylamide], the IC50 with A431 is 1000 to 10000 nM; with H1975, 100 to 500 nM; in [1], 50 to 100 nM; against EGFR T790M L858R, no more than 50 nM; in the test on EGFR vIII Ba/F3, no more than 50 nM; on EGFR wt, no more than 50 nM. The values for the IC50 (in [2]; on HER2 INS YVMA; with Cuto-17) were 100 to 500 nM, no more than 50 nM and 100 to 500 nM, respectively.

Regarding `C=CC(=O)Nc1cc(-c2c(-c3ccc(N4CCN(C)CC4)cc3)[nH]c3ncc(-c4cnn(C)c4C)cc23)ccc1C` [Example 3, N-(5-(5-(1,5-dimethyl-1H-pyrazol-4-yl)-2-(4-(4-methylpiperazin-1-yl)phenyl)-1H-pyrrolo[2,3-b]pyridin-3-yl)-2-methylphenyl)acrylamide], the IC50 was 500 to 1000 nM in the test on A431; 50 to 100 nM in the test on H1975; no more than 50 nM in test [1]; no more than 50 nM on EGFR T790M L858R; no more than 50 nM in the test on EGFR vIII Ba/F3; no more than 50 nM at EGFR wt. For the same compound, the IC50 (in test [2]; against HER2 INS YVMA; in the test on Cuto-17) was no more than 50 nM each time.

In the case of `C=CC(=O)Nc1cc(-c2c(-c3ccc(N4CCN(C)CC4)cc3)[nH]c3ncc(-c4cnn(CC)c4)cc23)ccc1C` [Example 4, N-(5-(5-(1-ethyl-1H-pyrazol-4-yl)-2-(4-(4-methylpiperazin-1-yl)phenyl)-1 H-pyrrolo[2,3-b]pyridin-3-yl)-2-methylphenyl)acrylamide], the IC50 in the test with A431 was 500 to 1000 nM; in the test with H1975, 100 to 500 nM; in test [1], no more than 50 nM; on EGFR T790M L858R, no more than 50 nM; in the test on EGFR vIII Ba/F3, no more than 50 nM; against EGFR wt, no more than 50 nM. The IC50 was 50 to 100 nM in test [2], no more than 50 nM against HER2 INS YVMA and 100 to 500 nM with Cuto-17.

On to `C=CC(=O)Nc1cc(-c2c(-c3ccc(N4CCN(C)CC4)cc3)[nH]c3ncc(-c4cn(C)nc4C)cc23)ccc1C` [Example 5, N-(5-(5-(1,3-dimethyl-1H-pyrazol-4-yl)-2-(4-(4-methylpiperazin-1-yl)phenyl)-1H-pyrrolo[2,3-b]pyridin-3-yl)-2-methylphenyl)acrylamide], for which the IC50 in the test with A431 was 1000 to 10000 nM; in the test with H1975 it was 500 to 1000 nM; in [1], no more than 50 nM; against EGFR T790M L858R, no more than 50 nM; in the test on EGFR vIII Ba/F3, 50 to 100 nM; at EGFR L858R it was no more than 50 nM. In addition, the IC50 was no more than 50 nM at EGFR wt; no more than 50 nM against EGFR (del746-750); 100 to 500 nM in [2]; no more than 50 nM against HER2 INS YVMA; 100 to 500 nM in the test on Cuto-17.

For the compound `C=CC(=O)Nc1cc(-c2c(-c3ccc(N4CCN(C)CC4)cc3)[nH]c3ncc(-c4cnn(C5CC5)c4)cc23)ccc1C` [Example 6, N-(5-(5-(1-cyclopropyl-1H-pyrazol-4-yl)-2-(4-(4-methylpiperazin-1-yl)phenyl)-1H-pyrrolo[2,3-b]pyridin-3-yl)-2-methylphenyl)acrylamide], the IC50 is 1000 to 10000 nM in the test with A431; 100 to 500 nM in the test with H1975; no more than 50 nM in the test with EGFR L858R T790M Ba/F3; no more than 50 nM in [1]; no more than 50 nM on EGFR T790M L858R; no more than 50 nM in the test with EGFR vIII Ba/F3. The IC50 (against EGFR L858R; with EGFR L858R Ba/F3; at EGFR wt; against EGFR (del746-750); in [2]; at HER2 INS YVMA) was no more than 50 nM in each case. Moreover, in the test on Cuto-17, the IC50 lay in the range of 100 to 500 nM.

Take `C=CC(=O)Nc1cc(-c2c(-c3ccc(N4CCN(C)CC4)cc3)[nH]c3ncc(-c4cnn(CCOC)c4)cc23)ccc1C` [Example 7, N-(5-(5-(1-(2-methoxyethyl)-1H-pyrazol-4-yl)-2-(4-(4-methylpiperazin-1-yl)phenyl)-1H-pyrrolo[2,3-b]pyridin-3-yl)-2-methylphenyl)acrylamide]: the IC50 with A431 was 1000 to 10000 nM; with H1975 it was 100 to 500 nM; in test [1], no more than 50 nM; at EGFR T790M L858R it was no more than 50 nM; in the test on EGFR vIII Ba/F3, no more than 50 nM; at EGFR wt it was no more than 50 nM. Further, the values for the IC50 (in test [2]; against HER2 INS YVMA; in the test on Cuto-17) were 100 to 500 nM, no more than 50 nM and 100 to 500 nM, respectively.

Values taken from patent EP3868760A1, “2,3,5-SUBSTITUTED PYRROLO[2,3-B]PYRIDINES AS ERBB MODULATORS USEFUL FOR TREATING CANCER” (PearlRiver Bio GmbH, priority 2020, dated 2021).
